Results: patent US9925240B2, “Methods of treating and preventing cancer drug resistance” (Genentech, Inc., priority 2013, dated 2018)

Legend:
HCC4006 cells = assay: Clonogenic assay (crystal violet) in HCC4006 cells; type: cell-based; details: erlotinib 1 μM plus PD173074 0.5 μM, continuous treatment, stained at 6 weeks
Protocol: 10^5 cells were plated in 10 cm^2 plate. 24 hours after plating, media was removed and replaced with media containing indicated drugs. Fresh media was replaced every 3 to 4 days until cells reached confluence (4 weeks) or 6 weeks to stop culture. Media was removed, cells were washed with PBS, then stained with 0.5% crystal violet for 20 minutes at room temperature. Dye was removed, cell monolayers were washed with water, dry the plate and take a picture as record.

HCC4006-ER cells = assay: Cell viability assay (CellTiter-Glo) in erlotinib-resistant HCC4006-ER cells; type: cell-based; details: for Ability to overcome resistance to erlotinib (cell viability, FIG. 3 and FIG. 5): 72 h, in combination with erlotinib
Protocol: 10^3 cells were plated in each well of 384-well plate. 24 hours after plating, added indicated concentration drug to each well. 72 hours after dosing, added CellTiter-Glo Reagent (CellTiter Glo Luminescent Cell Viability Assay, Promega) to each well, incubate the plate at room temperature for 10 minutes, record luminescence by EnVision 2101 Multilabel Reader (PerkinElmer).
Drug-sensitive cells (HCC4006 and HCC827) were treated with 2 uM erlotinib for 2 months. Fresh media containing 2 uM erlotinib were replaced every 3 to 4 days. Viable cells were collected as erlotinib-resistant cells.

Compound | Development of resistance to erlotinib (FIG. 6) (HCC4006 cells) | Ability to overcome resistance to erlotinib (cell viability, FIG. 3 and FIG. 5) (HCC4006-ER cells; HCC4006-ER cells) | Screen of small molecule inhibitors in the presence or absence of erlotinib (growth inhibition, FIG. 8) (HCC4006-ER cells; HCC4006-ER cells, with or without erlotinib) | Sensitivity of cells to erlotinib (cell viability, annexin V, FIG. 1A-C) (HCC4006-ER cells; HCC4006-ER vs parental HCC4006, 72 h)
CCN(CC)CCCCNc1ncc2cc(-c3cc(OC)cc(OC)c3)c(NC(=O)NC(C)(C)C)nc2n1 [PD173074, N-[2-[[4-(diethylamino)butyl]amino]-6-(3,5-dimethoxyphenyl)pyrido[2,3-d]pyrimidin-7-yl]-N′-(1,1-dimethylethyl)-urea] | can suppress the development of resistance to erlotinib | overcame resistance to erlotinib | could reverse resistance to erlotinib | 
Nc1nc(Nc2ccc3c(c2)CCC(N2CCCC2)CC3)nn1-c1cc2c(nn1)-c1ccccc1CCC2 (centres unmarked) [R428] |  | cannot overcome resistance to erlotinib |  | 
C#Cc1cccc(Nc2ncnc3cc(OCCOC)c(OCCOC)cc23)c1 [erlotinib, N-(3-ethynylphenyl)-6,7-bis(2-methoxyethoxy)-4-quinazolinamine] |  |  |  | resistant
